Test results from PubChem BioAssay (NCI).
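Interpolation was linear, between the two tested concentrations surrounding the appropriate level; five concentrations were tested over 48 hours in 96-well plates. TGI denotes the concentration required for complete inhibition of growth.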

Experiments:
Test in all cases: inhibition of tumour cell growth, NCI panel, 48 h
786-0 renal = test system: 786-0 renal
SK-MEL-28 melanoma = test system: SK-MEL-28 melanoma
OVCAR-8 ovarian = test system: OVCAR-8 ovarian
TK-10 renal = test system: TK-10 renal
SNB-75 CNS = test system: SNB-75 CNS
NCI-H226 lung = test system: NCI-H226 lung
DMS 273 small cell lung = test system: DMS 273 small cell lung
KM12 colon = test system: KM12 colon
KM20L2 colon = test system: KM20L2 colon
UACC-257 melanoma = test system: UACC-257 melanoma
UACC-62 melanoma = test system: UACC-62 melanoma
M14 melanoma = test system: M14 melanoma
SF-295 CNS = test system: SF-295 CNS
M19-MEL melanoma = test system: M19-MEL melanoma
COLO 205 colon = test system: COLO 205 colon
UO-31 renal = test system: UO-31 renal
LXFL 529 NSCLC = test system: LXFL 529 NSCLC
DMS 114 small cell lung = test system: DMS 114 small cell lung
A498 renal = test system: A498 renal
SK-OV-3 ovarian = test system: SK-OV-3 ovarian
DLD-1 colon = test system: DLD-1 colon
XF 498 CNS = test system: XF 498 CNS
NCI-H460 lung = test system: NCI-H460 lung
RPMI-8226 leukemia = test system: RPMI-8226 leukemia
A549 NSCLC = test system: A549 NSCLC
HCC-2998 colon = test system: HCC-2998 colon
HT29 colon = test system: HT29 colon
HOP-18 NSCLC = test system: HOP-18 NSCLC
IGROV1 ovarian = test system: IGROV1 ovarian
NCI-H522 lung = test system: NCI-H522 lung
RXF 393 renal = test system: RXF 393 renal
ACHN renal = test system: ACHN renal
HOP-62 NSCLC = test system: HOP-62 NSCLC
HL-60(TB) leukemia = test system: HL-60(TB) leukemia
OVCAR-4 ovarian = test system: OVCAR-4 ovarian
SF-268 CNS = test system: SF-268 CNS
LOX IMVI melanoma = test system: LOX IMVI melanoma
U251 CNS = test system: U251 CNS
RXF-631 renal = test system: RXF-631 renal
HOP-92 NSCLC = test system: HOP-92 NSCLC
MALME-3M melanoma = test system: MALME-3M melanoma
CCRF-CEM leukemia = test system: CCRF-CEM leukemia
HCT-15 colon = test system: HCT-15 colon
EKVX NSCLC = test system: EKVX NSCLC
SK-MEL-2 melanoma = test system: SK-MEL-2 melanoma
SW-620 colon = test system: SW-620 colon
MOLT-4 leukemia = test system: MOLT-4 leukemia
K-562 leukemia = test system: K-562 leukemia
OVCAR-5 ovarian = test system: OVCAR-5 ovarian
SF-539 CNS = test system: SF-539 CNS
SN12C renal = test system: SN12C renal
HCT-116 colon = test system: HCT-116 colon
CAKI-1 renal = test system: CAKI-1 renal
SNB-19 CNS = test system: SNB-19 CNS
SK-MEL-5 melanoma = test system: SK-MEL-5 melanoma
SR leukemia = test system: SR leukemia
NCI-H23 lung = test system: NCI-H23 lung
OVCAR-3 ovarian = test system: OVCAR-3 ovarian

Structure (SMILES): N/N=C(/Cc1ccccc1)NNC(N)=S
- TGI (786-0 renal): > 100 µM
- TGI (SK-MEL-28 melanoma): > 100 µM
- TGI (OVCAR-8 ovarian): > 100 µM
- TGI (TK-10 renal): > 100 µM
- TGI (SNB-75 CNS): > 100 µM
- TGI (NCI-H226 lung): > 100 µM
- TGI (DMS 273 small cell lung): > 100 µM
- TGI (KM12 colon): > 100 µM
- TGI (KM20L2 colon): > 100 µM
- TGI (UACC-257 melanoma): > 100 µM
- TGI (UACC-62 melanoma): > 100 µM
- TGI (M14 melanoma): > 100 µM
- TGI (SF-295 CNS): > 100 µM
- TGI (M19-MEL melanoma): > 100 µM
- TGI (COLO 205 colon): > 100 µM
- TGI (UO-31 renal): > 100 µM
- TGI (LXFL 529 NSCLC): > 100 µM
- TGI (DMS 114 small cell lung): > 100 µM
- TGI (A498 renal): > 100 µM
- TGI (SK-OV-3 ovarian): > 100 µM
- TGI (DLD-1 colon): > 100 µM
- TGI (XF 498 CNS): > 100 µM
- TGI (NCI-H460 lung): > 100 µM
- TGI (RPMI-8226 leukemia): > 100 µM
- TGI (A549 NSCLC): > 100 µM
- TGI (HCC-2998 colon): > 100 µM
- TGI (HT29 colon): > 100 µM
- TGI (HOP-18 NSCLC): > 100 µM
- TGI (IGROV1 ovarian): > 100 µM
- TGI (NCI-H522 lung): 76 µM
- TGI (RXF 393 renal): > 100 µM
- TGI (ACHN renal): > 100 µM
- TGI (HOP-62 NSCLC): > 100 µM
- TGI (HL-60(TB) leukemia): > 100 µM
- TGI (OVCAR-4 ovarian): > 100 µM
- TGI (SF-268 CNS): > 100 µM
- TGI (LOX IMVI melanoma): > 100 µM
- TGI (U251 CNS): > 100 µM
- TGI (RXF-631 renal): > 100 µM
- TGI (HOP-92 NSCLC): > 100 µM
- TGI (MALME-3M melanoma): > 100 µM
- TGI (CCRF-CEM leukemia): > 100 µM
- TGI (HCT-15 colon): > 100 µM
- TGI (EKVX NSCLC): > 100 µM
- TGI (SK-MEL-2 melanoma): > 100 µM
- TGI (SW-620 colon): > 100 µM
- TGI (MOLT-4 leukemia): > 100 µM
- TGI (K-562 leukemia): > 100 µM
- TGI (OVCAR-5 ovarian): > 100 µM
- TGI (SF-539 CNS): > 100 µM

Structure (SMILES): CN(C)CCc1ccc(Cl)cc1Cl
- TGI (786-0 renal): > 100 µM
- TGI (SN12C renal): > 100 µM
- TGI (SK-MEL-28 melanoma): > 100 µM
- TGI (HCT-116 colon): > 100 µM
- TGI (CAKI-1 renal): > 100 µM
- TGI (OVCAR-8 ovarian): > 100 µM
- TGI (TK-10 renal): > 100 µM
- TGI (SNB-75 CNS): > 100 µM
- TGI (SNB-19 CNS): > 100 µM
- TGI (KM12 colon): > 100 µM
- TGI (KM20L2 colon): > 100 µM
- TGI (SK-MEL-5 melanoma): > 100 µM
- TGI (UACC-257 melanoma): > 100 µM
- TGI (UACC-62 melanoma): > 100 µM
- TGI (M14 melanoma): > 100 µM
- TGI (SF-295 CNS): > 100 µM
- TGI (M19-MEL melanoma): > 100 µM
- TGI (COLO 205 colon): > 100 µM
- TGI (UO-31 renal): > 100 µM
- TGI (LXFL 529 NSCLC): > 100 µM
- TGI (DMS 114 small cell lung): > 100 µM
- TGI (A498 renal): > 100 µM
- TGI (SK-OV-3 ovarian): > 100 µM
- TGI (DLD-1 colon): > 100 µM
- TGI (XF 498 CNS): > 100 µM
- TGI (SR leukemia): > 100 µM
- TGI (NCI-H460 lung): > 100 µM
- TGI (RPMI-8226 leukemia): > 100 µM
- TGI (A549 NSCLC): > 100 µM
- TGI (HCC-2998 colon): > 100 µM
- TGI (HT29 colon): > 100 µM
- TGI (HOP-18 NSCLC): > 100 µM
- TGI (IGROV1 ovarian): > 100 µM
- TGI (NCI-H522 lung): > 100 µM
- TGI (RXF 393 renal): > 100 µM
- TGI (ACHN renal): > 100 µM
- TGI (HOP-62 NSCLC): > 100 µM
- TGI (HL-60(TB) leukemia): > 100 µM
- TGI (OVCAR-4 ovarian): > 100 µM
- TGI (SF-268 CNS): > 100 µM
- TGI (LOX IMVI melanoma): > 100 µM
- TGI (U251 CNS): > 100 µM
- TGI (RXF-631 renal): > 100 µM
- TGI (HOP-92 NSCLC): > 100 µM
- TGI (MALME-3M melanoma): > 100 µM
- TGI (CCRF-CEM leukemia): > 100 µM
- TGI (HCT-15 colon): > 100 µM
- TGI (EKVX NSCLC): > 100 µM
- TGI (SK-MEL-2 melanoma): > 100 µM
- TGI (NCI-H23 lung): > 100 µM
- TGI (SW-620 colon): > 100 µM
- TGI (MOLT-4 leukemia): > 100 µM
- TGI (K-562 leukemia): > 100 µM
- TGI (OVCAR-5 ovarian): > 100 µM
- TGI (SF-539 CNS): > 100 µM

Structure (SMILES): Cc1c(Cl)ccc2c1NC(=O)C2(O)CC(=O)c1ccc2ccccc2c1 (configuration not stated)
- TGI (786-0 renal): > 100 µM
- TGI (SN12C renal): > 100 µM
- TGI (SK-MEL-28 melanoma): > 100 µM
- TGI (HCT-116 colon): > 100 µM
- TGI (CAKI-1 renal): > 100 µM
- TGI (OVCAR-8 ovarian): > 100 µM
- TGI (TK-10 renal): > 100 µM
- TGI (SNB-75 CNS): 54.2 µM
- TGI (NCI-H226 lung): > 100 µM
- TGI (SNB-19 CNS): > 100 µM
- TGI (KM12 colon): > 100 µM
- TGI (KM20L2 colon): > 100 µM
- TGI (UACC-257 melanoma): > 100 µM
- TGI (UACC-62 melanoma): > 100 µM
- TGI (M14 melanoma): > 100 µM
- TGI (SF-295 CNS): > 100 µM
- TGI (COLO 205 colon): > 100 µM
- TGI (OVCAR-3 ovarian): > 100 µM
- TGI (UO-31 renal): > 100 µM
- TGI (DMS 114 small cell lung): 58.4 µM
- TGI (A498 renal): > 100 µM
- TGI (SK-OV-3 ovarian): > 100 µM
- TGI (DLD-1 colon): > 100 µM
- TGI (XF 498 CNS): > 100 µM
- TGI (NCI-H460 lung): > 100 µM
- TGI (RPMI-8226 leukemia): 46.7 µM
- TGI (A549 NSCLC): > 100 µM
- TGI (HCC-2998 colon): > 100 µM
- TGI (HT29 colon): > 100 µM
- TGI (HOP-18 NSCLC): > 100 µM
- TGI (IGROV1 ovarian): > 100 µM
- TGI (NCI-H522 lung): 61.7 µM
- TGI (RXF 393 renal): 88.9 µM
- TGI (ACHN renal): > 100 µM
- TGI (HOP-62 NSCLC): > 100 µM
- TGI (OVCAR-4 ovarian): > 100 µM
- TGI (SF-268 CNS): > 100 µM
- TGI (LOX IMVI melanoma): > 100 µM
- TGI (U251 CNS): > 100 µM
- TGI (RXF-631 renal): > 100 µM
- TGI (HOP-92 NSCLC): > 100 µM
- TGI (MALME-3M melanoma): > 100 µM
- TGI (CCRF-CEM leukemia): > 100 µM
- TGI (HCT-15 colon): > 100 µM
- TGI (EKVX NSCLC): > 100 µM
- TGI (SK-MEL-2 melanoma): > 100 µM
- TGI (NCI-H23 lung): > 100 µM
- TGI (SW-620 colon): > 100 µM
- TGI (MOLT-4 leukemia): 89.5 µM
- TGI (K-562 leukemia): > 100 µM
- TGI (OVCAR-5 ovarian): > 100 µM
- TGI (SF-539 CNS): > 100 µM
